{
  "source": "paper PMC7450057",
  "about": "“Enhancing intracellular accumulation and target engagement of PROTACs with reversible covalent chemistry” (Nature Communications, 2020)",
  "key": {"MOLM-14 cells": {"system": "MOLM-14 cells", "assay": "Quantification of intracellular drug concentration by LC-MS", "format": "in vitro ADME", "settings": "for Intracellular concentration: Concentration of compound, AVE / intracellular amount, AVE / intracellular amount / Intracellular concentration: Concentration of compound: 200 nM; for Intracellular concentration: Concentration of compound, AVE / intracellular amount, AVE: average of 3 replicates; for intracellular amount: initial amount 0.4000 nmol; for Intracellular concentration: Concentration of compound: sample volume 400 µL", "experimental": "MOLM-14 cells were seeded at a density of 0.5 × 10^6 per mL in 2 mL medium. […] The samples were immediately centrifuged at 12,000 × g for 15 min at 4 °C, then removing the supernatant. In all, 400 μL of NP-40 lysis buffer was added to the cell pellet and mixed thoroughly. The mixtures were rocked for 1 h at 4 °C and centrifuged at 12,000 × g for 15 min at 4 °C. Then the supernatant was transferred to new EP tubes. In total, 20 µL supernatant was extracted with 180 µL of acetonitrile (containing internal standard: 250 nM of RNC-Ctrl) and centrifuged at the same conditions described above. Take 75 μL of supernatant for liquid chromatography-mass spectrometry analysis.\nThe mass spectrometer was operated in positive SIM ion mode (fragmentor 120 V; cycle time 0.6 s/cycle; Agilent Technologies 6130 Quadrupole LC/MS)."}, "Rec-1": {"system": "Rec-1", "assay": "IC50 in MCL cell lines (Supplementary Table 2), Rec-1", "settings": "for Cell Viability (%): Rec-1 cells, replicate wells"}, "BTK": {"target": "BTK (Mus musculus, UniProt P35991)", "sequence (P35991 whole entry)": "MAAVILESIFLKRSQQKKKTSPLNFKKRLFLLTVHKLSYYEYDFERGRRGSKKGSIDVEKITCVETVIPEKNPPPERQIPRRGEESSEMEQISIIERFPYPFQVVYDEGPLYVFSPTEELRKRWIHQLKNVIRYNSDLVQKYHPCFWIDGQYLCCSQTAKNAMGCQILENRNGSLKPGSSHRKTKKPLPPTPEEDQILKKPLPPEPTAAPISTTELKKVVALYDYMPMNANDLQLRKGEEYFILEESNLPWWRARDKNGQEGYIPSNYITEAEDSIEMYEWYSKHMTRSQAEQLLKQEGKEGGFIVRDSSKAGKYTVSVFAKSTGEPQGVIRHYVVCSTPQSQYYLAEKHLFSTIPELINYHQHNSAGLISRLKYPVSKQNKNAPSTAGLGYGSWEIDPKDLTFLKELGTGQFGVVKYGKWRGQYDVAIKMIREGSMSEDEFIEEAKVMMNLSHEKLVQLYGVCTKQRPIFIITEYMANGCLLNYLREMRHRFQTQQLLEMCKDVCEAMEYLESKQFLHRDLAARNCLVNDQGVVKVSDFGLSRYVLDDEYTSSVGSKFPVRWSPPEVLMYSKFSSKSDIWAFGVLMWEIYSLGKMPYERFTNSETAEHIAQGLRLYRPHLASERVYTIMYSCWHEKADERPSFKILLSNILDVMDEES", "assay": "BTK degradation in mouse B-cell lymphoma cell line derived from Eu-Myc mice", "format": "cell-based", "parameters": "endogenous in cells; host or cells: B cell lymphoma cell line derived from Eu-Myc mice", "settings": "for BTK quantification (anti-BTK / anti-β-actin): Supplementary Figure 10, replicates, DMSO about 100"}},
  "note": "Values joined by “and” are separate entries in the source; they are usually repeats but may differ in a detail not shown here. Equal values may be shown once.",
  "data": [
    {"smiles": "CN(CCCNC(=O)CNc1cccc2c1C(=O)N(C1CCC(=O)NC1=O)C2=O)C(C)(C)C=C(C#N)C(=O)N1CCC[C@@H](n2nc(-c3ccc(Oc4ccccc4)cc3)c3c(N)ncnc32)C1", "note": "(stereo partly shown) [RC-1]", "values": [
      {"measurement": "Intracellular concentration: Concentration of compound, AVE", "setting": "MOLM-14 cells; 5 min", "value": 0.1304, "unit": "µM"},
      {"measurement": "intracellular amount, AVE", "setting": "MOLM-14 cells; 5 min", "value": 0.0522, "unit": "nmol"},
      {"measurement": "intracellular amount", "setting": "MOLM-14 cells; 5 min, single replicates", "value": "0.0607 nmol and 0.0507 nmol and 0.0451 nmol"},
      {"measurement": "Intracellular concentration: Concentration of compound", "setting": "MOLM-14 cells; 5 min, single replicates", "value": "0.1517 µM and 0.1267 µM and 0.1128 µM"},
      {"measurement": "Intracellular concentration: Concentration of compound, AVE", "setting": "MOLM-14 cells; 15 min", "value": 0.1127, "unit": "µM"},
      {"measurement": "intracellular amount, AVE", "setting": "MOLM-14 cells; 15 min", "value": 0.0451, "unit": "nmol"},
      {"measurement": "intracellular amount", "setting": "MOLM-14 cells; 15 min, single replicates", "value": "0.0487 nmol and 0.0414 nmol and 0.0451 nmol"},
      {"measurement": "Intracellular concentration: Concentration of compound", "setting": "MOLM-14 cells; 15 min, single replicates", "value": "0.1218 µM and 0.1035 µM and 0.1128 µM"},
      {"measurement": "Intracellular concentration: Concentration of compound, AVE", "setting": "MOLM-14 cells; 30 min", "value": 0.1159, "unit": "µM"},
      {"measurement": "intracellular amount, AVE", "setting": "MOLM-14 cells; 30 min", "value": 0.0464, "unit": "nmol"},
      {"measurement": "intracellular amount", "setting": "MOLM-14 cells; 30 min, single replicates", "value": "0.0474 nmol and 0.0471 nmol and 0.0447 nmol"},
      {"measurement": "Intracellular concentration: Concentration of compound", "setting": "MOLM-14 cells; 30 min, single replicates", "value": "0.1184 µM and 0.1177 µM and 0.1117 µM"},
      {"measurement": "Intracellular concentration: Concentration of compound, AVE", "setting": "MOLM-14 cells; 60 min", "value": 0.1117, "unit": "µM"},
      {"measurement": "intracellular amount, AVE", "setting": "MOLM-14 cells; 60 min", "value": 0.0447, "unit": "nmol"},
      {"measurement": "intracellular amount", "setting": "MOLM-14 cells; 60 min, single replicates", "value": "0.0471 nmol and 0.0390 nmol and 0.0480 nmol"},
      {"measurement": "Intracellular concentration: Concentration of compound", "setting": "MOLM-14 cells; 60 min, single replicates", "value": "0.1177 µM and 0.0975 µM and 0.1199 µM"},
      {"measurement": "Intracellular concentration: Concentration of compound, AVE", "setting": "MOLM-14 cells; 90 min", "value": 0.1080, "unit": "µM"},
      {"measurement": "intracellular amount, AVE", "setting": "MOLM-14 cells; 90 min", "value": 0.0432, "unit": "nmol"},
      {"measurement": "intracellular amount", "setting": "MOLM-14 cells; 90 min, single replicates", "value": "0.0436 nmol and 0.0454 nmol and 0.0405 nmol"},
      {"measurement": "Intracellular concentration: Concentration of compound", "setting": "MOLM-14 cells; 90 min, single replicates", "value": "0.1091 µM and 0.1136 µM and 0.1013 µM"},
      {"measurement": "Intracellular concentration: Concentration of compound, AVE", "setting": "MOLM-14 cells; 120 min", "value": 0.1194, "unit": "µM"},
      {"measurement": "intracellular amount, AVE", "setting": "MOLM-14 cells; 120 min", "value": 0.0478, "unit": "nmol"},
      {"measurement": "intracellular amount", "setting": "MOLM-14 cells; 120 min, single replicates", "value": "0.0460 nmol and 0.0513 nmol"},
      {"measurement": "Intracellular concentration: Concentration of compound", "setting": "MOLM-14 cells; 120 min, single replicates", "value": "0.1151 µM and 0.1282 µM"},
      {"measurement": "Intracellular concentration: Concentration of compound, AVE", "setting": "MOLM-14 cells; 240 min", "value": 0.1060, "unit": "µM"},
      {"measurement": "intracellular amount, AVE", "setting": "MOLM-14 cells; 240 min", "value": 0.0424, "unit": "nmol"},
      {"measurement": "intracellular amount", "setting": "MOLM-14 cells; 240 min, single replicates", "value": "0.0426 nmol and 0.0421 nmol and 0.0424 nmol"},
      {"measurement": "Intracellular concentration: Concentration of compound", "setting": "MOLM-14 cells; 240 min, single replicates", "value": "0.1065 µM and 0.1054 µM and 0.1061 µM"},
      {"measurement": "Cellular concentration", "setting": "MOLM-14 cells; 5 min, Mean", "value": 0.0522, "unit": "nmol/million cells"},
      {"measurement": "Cellular concentration", "setting": "MOLM-14 cells; 5 min, single replicates, MOLM-14, 200 nM", "value": "0.0607 nmol/million cells and 0.0507 nmol/million cells and 0.0451 nmol/million cells"},
      {"measurement": "Cellular concentration", "setting": "MOLM-14 cells; 15 min, Mean", "value": 0.0451, "unit": "nmol/million cells"},
      {"measurement": "Cellular concentration", "setting": "MOLM-14 cells; 15 min, single replicates, MOLM-14, 200 nM", "value": "0.0487 nmol/million cells and 0.0414 nmol/million cells and 0.0451 nmol/million cells"},
      {"measurement": "Cellular concentration", "setting": "MOLM-14 cells; 30 min, Mean", "value": 0.0464, "unit": "nmol/million cells"},
      {"measurement": "Cellular concentration", "setting": "MOLM-14 cells; 30 min, single replicates, MOLM-14, 200 nM", "value": "0.0474 nmol/million cells and 0.0471 nmol/million cells and 0.0447 nmol/million cells"},
      {"measurement": "Cellular concentration", "setting": "MOLM-14 cells; 60 min, Mean", "value": 0.0447, "unit": "nmol/million cells"},
      {"measurement": "Cellular concentration", "setting": "MOLM-14 cells; 60 min, single replicates, MOLM-14, 200 nM", "value": "0.0390 nmol/million cells and 0.0480 nmol/million cells and 0.0471 nmol/million cells and 0.039 nmol/million cells and 0.048 nmol/million cells"},
      {"measurement": "Cellular concentration", "setting": "MOLM-14 cells; 90 min, Mean", "value": 0.0432, "unit": "nmol/million cells"},
      {"measurement": "Cellular concentration", "setting": "MOLM-14 cells; 90 min, single replicates, MOLM-14, 200 nM", "value": "0.0436 nmol/million cells and 0.0454 nmol/million cells and 0.0405 nmol/million cells"},
      {"measurement": "Cellular concentration", "setting": "MOLM-14 cells; 120 min, Mean", "value": 0.0478, "unit": "nmol/million cells"},
      {"measurement": "Cellular concentration", "setting": "MOLM-14 cells; 120 min, single replicates, MOLM-14, 200 nM", "value": "0.0460 nmol/million cells and 0.046 nmol/million cells and 0.0513 nmol/million cells"},
      {"measurement": "Cellular concentration", "setting": "MOLM-14 cells; 240 min, Mean", "value": 0.0424, "unit": "nmol/million cells"},
      {"measurement": "Cellular concentration", "setting": "MOLM-14 cells; 240 min, single replicates, MOLM-14, 200 nM", "value": "0.0426 nmol/million cells and 0.0421 nmol/million cells and 0.0424 nmol/million cells"},
      {"measurement": "intracellular concentration of RC-1 relative to RNC-1 and IRC-1", "setting": "MOLM-14 cells; LC-MS of cell lysates", "value": "~ 2 fold"},
      {"measurement": "IC50", "setting": "Rec-1; Rec-1, triplicates", "value": 4.1, "unit": "µM"},
      {"measurement": "Cell Viability (%)", "setting": "Rec-1; 1.25E-06 M", "value": "86.4761% and 87.1335% and 88.5619%"},
      {"measurement": "Cell Viability (%)", "setting": "Rec-1; 1.56E-07 M", "value": "110.78% and 108.392% and 108.404%"},
      {"measurement": "Cell Viability (%)", "setting": "Rec-1; 2.50E-06 M", "value": "70.381% and 67.6766% and 67.9066%"},
      {"measurement": "Cell Viability (%)", "setting": "Rec-1; 3.13E-07 M", "value": "100.052% and 101.66% and 95.2827%"},
      {"measurement": "Cell Viability (%)", "setting": "Rec-1; 5.00E-06 M", "value": "39.6222% and 42.2011% and 40.0645%"},
      {"measurement": "Cell Viability (%)", "setting": "Rec-1; 6.25E-07 M", "value": "96.6812% and 94.3055% and 92.2914%"},
      {"measurement": "Cell Viability (%)", "setting": "Rec-1; 7.81E-08 M", "value": "102.045% and 105.031% and 106.253%"},
      {"measurement": "BTK quantification (anti-BTK / anti-β-actin)", "setting": "BTK; 8 nM", "value": "63.6968 and 56.9893"},
      {"measurement": "BTK quantification (anti-BTK / anti-β-actin)", "setting": "BTK; 40 nM", "value": "41.0784 and 35.9122"},
      {"measurement": "BTK quantification (anti-BTK / anti-β-actin)", "setting": "BTK; 200 nM", "value": "29.8182 and 40.565"},
      {"measurement": "maximum BTK degradation", "setting": "BTK; dosed up to 25 µM, 24 h", "value": "30–40%"}
    ]}
  ]
}
